For assay [1], the system named is Lin− c-kit+ Sca-1+ murine hematopoietic precursors. As to conditions: cited from earlier work.
Assay [2] concerns CD34+ cells. The assay can be described thus: Ex-vivo expansion of CD34+ cell enriched cord blood cultures with cytokines; cell counts and FACS surface antigen analysis. Type of assay: cell-based, human. As to conditions: for CD34+ (×10^4): 10^−5M; for CD34+ cells per ml: three weeks, SCF, FLt3, IL-6, IL-3, re-selected. On the procedure:
Human blood cells were obtained from umbilical cord blood from female patients following full-term, normal delivery (informed consent was obtained).
Samples were collected and processed within 12 hours postpartum. Blood was mixed with 3% Gelatin (Sigma, St. Louis, Mo.), sedimented for 30 minutes to remove most red blood cells. […] The mononuclear cell fraction in the interface layer was collected, washed three times and resuspended in phosphate-buffered saline (PBS) solution (Biological Industries) containing 0.5% bovine serum albumin (BSA, Fraction V; Sigma).
To purify CD34^+ mononuclear cells, the fraction was subjected to two cycles of immuno-magnetic separation using the MiniMACS® or Clinimax® CD34 Progenitor Cell Isolation Kit (Miltenyi Biotec, Auburn, Calif.) as per manufacturer's recommendations.
CD34^+ expressing purified cells above were cultured in 24-well Costar Cell Culture Clusters (Corning Inc., Corning, N.Y.) or culture bags (American Fluoroseal Corp), at a concentration of 10^4 cells/ml in alpha medium (Biological Industries, Beit Haemek, Israel) supplemented with 10% fetal bovine serum (FBS, Biological Industries). The following human recombinant cytokines were added: Thrombopoietin (TPO), interleukin-6 (IL-6), FLT-3 ligand and stem cell factor (SCF), all at final concentrations of 50 ng/ml each, though occasionally IL-3, at a concentration of 20 ng/ml, was added either together or instead of SCF. For non-hematopoietic cell differentiation, FGF, EGF, NGF, VEGF, LIF or Hepatocyte growth factor (HGF) were used to supplement the growth medium, either alone or in various combinations. All cytokines used were purchased from Perpo Tech, Inc. (Rocky Hill, N.J.). The cultures were incubated at 37° C., 5% CO2, in a humidified atmosphere.
At weekly intervals, cell cultures were toped and semi-depopulated and were supplemented with fresh medium, serum and cytokines or supplemented with fresh growth medium, alone. At predetermined time points, cells were harvested, stained with trypan blue, counted, and cell morphology was determined via the use of cytospin (Shandon, UK)-prepared smears stained with May-Grunwald/Giemsa solutions.
CD34^+ purified and whole MNC cultures were prepared and maintained as described above. […] The antagonist was added for a predetermined, limited period, for up to three weeks or continuously during the entire culture period.
Cells were harvested, washed with a PBS solution containing 1% bovine sera albumin (BSA) and 0.1% sodium azide (Sigma), and stained at 4° C. for 60 minutes with fluorescein isothiocyanate or phycoerythrin-conjugated antibodies (all from Immunoquality Products, the Netherlands). The cells were then washed with the same buffer and analyzed by FACS caliber or Facstarplus flow cytometers. Cells were passed at a rate of 1000 cells/second, using saline as the sheath fluid. A 488 nm argon laser beam served as the light source for excitation. Emission of ten thousand cells was measured using logarithmic amplification, and analyzed using CellQuest software. Negative control staining of cells was accomplished with mouse IgG-PE (Dako A/S Glostrup, Denmark) and mouse IgG-FITC (BD Biosciences, Erembodegem, Belgium).
CD34 surface expression on short and long-term cultures initiated either with purified CD34^+ cells or the entire MNC fraction was determined as follows: CD34^+ cells were positively reselected (Miltenyi kit) and counted. Purity was confirmed by subsequent FACS and cell morphology analysis.
Reselected CD34^+ cell subsets were stained for the following combination of antigens: CD34PE/CD38FITC and CD34PE/38, 33, 14, 15, 3, 4, 61, 19 (Lin) FITC. The fraction positive for CD34 and negative for CD38 was defined as CD34^+CD38^−. The fraction positive for CD34 and negative for LIN was defined as CD34^+Lin^− cell fraction.
FACS analysis results are given as percentage values of cells. Absolute numbers of subsets are calculated from the absolute number of CD34^+ cells.

The test system of assay [3] is CD34+ cells. The experiment in a line: Colony forming unit (CFU / LTC-CFUc) ability of ex-vivo CD34+ cell cultures. As to conditions: 10^−5M. Type of assay: cell-based, human. On the procedure:
Total cell counts, numbers of CD34^+ cells and subsets, and CFU numbers are presented as cumulative numbers, with the assumption that the cultures had not been passaged; i.e., the number of cells per ml were multiplied by the number of passages performed.
Cells were cloned in semi-solid, methylcellulose-containing medium supplemented with 2 IU/ml erythropoietin (Eprex, Cilag AG Int., Switzerland), stem cell factor and IL-3, both at 20 ng/ml, and G-CSF and GM-CSF, both at 10 ng/ml (all from Perpo Tech). Cultures were incubated for 14 days at 37° C., 5% CO2 in a humidified atmosphere.
Briefly, the ability of the cultures to maintain self-renewal was measured by determination of the content of colony forming unit cells in the long and extended long-term cultures (LTC-CFUc), as described in the references hereinabove.

A further assay deals with HL-60 cells. Conditions: cited from earlier work.
The mark [4] stands for this setting: TPO, FLT3, IL-6, IL-3, 3 weeks after seeding.

Consider five compounds from patent US7955852B2, “Expansion of renewable stem cell populations” (Gamida Cell Ltd., priority 2002, dated 2011).

Structures are written as SMILES.

For the compound `Cc1ccc(C2=CCC(C)(C)c3ccc(C#Cc4ccc(C(=O)O)cc4)cc32)cc1` [AGN 193109], in assay [1] (cultured for 7 days), the “increase in the pre-CFU-S population” value is given as “approximately 6 fold” and the “short- or long-term repopulating ability” value is reported as “virtually no short- or long-term repopulating ability”.

Regarding `CC1=C(/C=C/C(C)=C/C=C/C(C)=C/C(=O)O)C(C)(C)CCC1` [ATRA, all-trans-retinoic-acid], the “generation of colony-forming cell (CFC) and colony-forming unit-spleen (CFU-S)” value in assay [1] (1 μmol) is listed as “enhanced”.

For the compound `CN1c2ccc([N+](=O)[O-])cc2N=C(c2ccc(C(=O)O)cc2)c2cc3c(cc21)C(C)(C)CCC3(C)C` [HX-531, 4-[5H-2,3-(2,5-Dimethyl-2,5-Hexano) 5-Methyl-8-nitrodibenzo [b,e][1,4]diazepin-11-yl) Benzoic acid], the “CD34+ (×10^4)” value is 1636 ×10^4 with CD34+ cells [2] (5 weeks after seeding), 4977 ×10^4 in the assay on CD34+ cells [2] (9 weeks after seeding), 4055 ×10^4 in the assay with CD34+ cells [2] (11 weeks after seeding) and 167 ×10^4 in the assay on CD34+ cells [2] (setting [4]). In addition, in the assay with CD34+ cells [3] (3 weeks after seeding, mixed colonies), the “CFU (×10^3), mixed” value is recorded as “(120 mixed) ×10^3”. Moreover, the “CFU (×10^3)” value in the assay on CD34+ cells [3] (5 weeks after seeding) was 8542 ×10^3; with CD34+ cells [3] (9 weeks after seeding), 36557 ×10^3; with CD34+ cells [3] (11 weeks after seeding) it was 67338 ×10^3; with CD34+ cells [3] (setting [4]) it was 1920 ×10^3.

For the compound `CCCOc1cc2c(cc1\C(C)=C/C=C/C(C)=C/C(=O)O)C(C)(C)CCC2(C)C` [LGN 100754], the “activity on ex vivo expansion of stem/progenitor cells” value in the assay on CD34+ cells [2] (10^−7 M, along with IL-3, 3 and 5 weeks) is “no activity”.

Regarding `NC(=O)c1cccnc1` [Nicotinamide], the “CD34+ cells per ml” value with CD34+ cells [2] (1 mM, TPO) is listed as 99 ×10^4 CD34+ cells per ml; in the assay on CD34+ cells [2] (5 mM, TPO) it was 180 ×10^4 CD34+ cells per ml. The “CD38 activity and differentiation” value with HL-60 cells is listed as “inhibited”.
